Data: US9617240B2 (TEIJIN PHARMA LIMITED, priority 2013, dated 2017)
pIC50: −log10 of the molar value.

These compounds were tested against T1, oxidase type xanthine oxidase (derived from buttermilk) (Bos taurus, UniProt P80457) (assay: Xanthine oxidase inhibitory activity (absorbance change at 290 nm)). Details: xanthine substrate, 100 mM phosphate buffer, absorbance at 290 nm for 5 minutes; read-out: Inhibitory Activity (50% inhibitory concentration with respect to oxidase type xanthine oxidase).
T1 construct: oxidase type xanthine oxidase (derived from buttermilk, supplied by Calbiochem Novabiochem Corp.); purchased Calbiochem Novabiochem Corp; host or cells: buttermilk (natural source)
T1 sequence (P80457 whole entry): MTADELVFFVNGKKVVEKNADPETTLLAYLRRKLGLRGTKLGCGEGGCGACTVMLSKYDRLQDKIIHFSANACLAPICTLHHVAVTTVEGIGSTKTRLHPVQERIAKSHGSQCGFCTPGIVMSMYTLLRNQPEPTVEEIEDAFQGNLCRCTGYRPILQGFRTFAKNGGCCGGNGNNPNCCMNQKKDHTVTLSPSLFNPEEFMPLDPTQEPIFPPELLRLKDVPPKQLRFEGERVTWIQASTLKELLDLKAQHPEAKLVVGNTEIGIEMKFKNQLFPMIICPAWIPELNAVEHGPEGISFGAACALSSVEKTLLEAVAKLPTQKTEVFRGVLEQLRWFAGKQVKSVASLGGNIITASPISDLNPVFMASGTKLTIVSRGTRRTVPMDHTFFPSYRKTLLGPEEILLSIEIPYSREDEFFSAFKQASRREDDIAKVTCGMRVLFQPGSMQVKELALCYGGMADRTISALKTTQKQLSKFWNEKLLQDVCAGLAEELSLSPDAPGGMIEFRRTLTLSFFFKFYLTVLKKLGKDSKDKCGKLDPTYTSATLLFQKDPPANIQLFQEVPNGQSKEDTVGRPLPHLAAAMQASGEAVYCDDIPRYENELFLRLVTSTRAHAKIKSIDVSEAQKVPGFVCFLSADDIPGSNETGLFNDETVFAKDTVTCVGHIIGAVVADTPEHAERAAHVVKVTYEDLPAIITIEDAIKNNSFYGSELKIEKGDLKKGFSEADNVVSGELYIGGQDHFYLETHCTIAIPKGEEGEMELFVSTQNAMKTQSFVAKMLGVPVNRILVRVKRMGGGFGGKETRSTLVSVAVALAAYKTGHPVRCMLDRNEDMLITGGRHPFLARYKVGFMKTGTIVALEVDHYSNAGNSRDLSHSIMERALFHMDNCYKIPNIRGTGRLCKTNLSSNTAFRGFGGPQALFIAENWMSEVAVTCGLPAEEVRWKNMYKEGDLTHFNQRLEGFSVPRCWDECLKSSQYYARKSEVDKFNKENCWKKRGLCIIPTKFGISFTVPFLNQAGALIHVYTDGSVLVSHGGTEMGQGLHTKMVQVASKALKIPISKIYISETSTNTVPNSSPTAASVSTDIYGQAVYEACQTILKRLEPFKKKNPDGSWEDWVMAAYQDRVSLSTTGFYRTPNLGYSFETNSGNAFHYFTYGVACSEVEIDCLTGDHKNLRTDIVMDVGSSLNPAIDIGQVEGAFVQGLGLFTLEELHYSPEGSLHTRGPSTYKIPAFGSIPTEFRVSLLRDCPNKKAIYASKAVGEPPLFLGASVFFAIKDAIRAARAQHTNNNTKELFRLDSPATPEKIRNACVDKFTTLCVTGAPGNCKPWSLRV
Type: biochemical
Experimental: The xanthine oxidase inhibitory activity was measured for the compounds synthesized according to the above Examples.
After a test compound was dissolved in DMSO (manufactured by Sigma Co.) so that the concentration is 20 mM, the test compound was prepared and used at a desired concentration at the time of use.
The evaluation of the xanthine oxidase inhibitory activity of the compounds of the present invention was conducted by partially modifying the method described in the literature (Method Enzymatic Analysis, 1, 521-522, 1974). The present evaluation is based on the oxidase type xanthine oxidase inhibitory activity evaluation. That is, a xanthine (manufactured by Sigma Co.) solution prepared at 10 mM in advance using a 20 mM sodium hydroxide solution was adjusted to 30 μM using a 100 mM phosphate buffer solution, and 75 μL/well of each solution was added into a 96-well plate. Aliquots (1.5 μL/well) of each test sample, which was diluted with DMSO so that the concentration is 100 times the final concentration, were added into a 96-well plate, and after mixing, the absorbance at 290 nm was measured by a microplate reader SPECTRA MAX Plus 384 (manufactured by Molecular Devices, LLC). Subsequently, oxidase type xanthine oxidase (derived from buttermilk, supplied by Calbiochem Novabiochem Corp.) was prepared at 30.6 mU/mL using a 100 mM phosphate buffer solution and 73.5 μL/well of each solution was added. Immediately after mixing, the change in absorbance at 290 nm was measured for 5 minutes. The enzyme activity when DMSO was used instead of a test compound solution was defined as 100%, the inhibitory rate of the test compounds was calculated and the 50% inhibitory concentration with respect to oxidase type xanthine oxidase was calculated by fitting to the dose-response curve.
Note that the symbols (+, ++, +++) in the table represent inhibitory activity values as shown below.

pIC50	Compound
8.00 to 8.30	COc1ccc(F)c(-c2ccc(-n3cc(C(=O)O)cn3)nc2C#N)c1 [Compound 91, 1-[6-cyano-5-(2-fluoro-5-methoxyphenyl)pyridin-2-yl]-1H-pyrazole-4-carboxylic acid]
8.30 to 9.00	N#Cc1cc(-n2cc(C(=O)O)cn2)ncc1-c1ccc(OCc2ccccc2)cc1 [Compound 66, 1-{5-[4-(benzyloxy)phenyl]-4-cyanopyridine-2-yl}-1H-pyrazole-4-carboxylic acid]
≤ 8.00	N#Cc1cc(-n2cc(C(=O)O)cn2)ncc1-c1cccc([N+](=O)[O-])c1 [Compound 72, 1-[4-cyano-5-(3-nitrophenyl)pyridin-2-yl]-1H-pyrazole-4-carboxylic acid]
8.30 to 9.00	N#Cc1cc(-n2cc(C(=O)O)cn2)ncc1-c1cccc(Cl)c1F [Compound 41, 1-[4-cyano-5-(3-chloro-2-fluorophenyl)pyridin-2-yl]-1H-pyrazole-4-carboxylic acid]
8.30 to 9.00	CC(C)(C)c1ccc(-c2cnc(-n3cc(C(=O)O)cn3)cc2C#N)cc1 [Compound 53, 1-[5-(4-tert-butylphenyl)-4-cyanopyridin-2-yl]-1H-pyrazole-4-carboxylic acid]
≤ 8.00	N#Cc1cc(-n2cc(C(=O)O)cn2)cnc1-c1ccc(F)cc1F [Compound 77, 1-[5-cyano-6-(2,4-difluorophenyl)pyridin-3-yl]-1H-pyrazole-4-carboxylic acid]
8.30 to 9.00	N#Cc1cc(-n2cc(C(=O)O)cn2)ncc1-c1ccc(C(F)(F)F)cc1 [Compound 43, 1-{4-cyano-5-[4-(trifluoromethyl)phenyl]pyridin-2-yl}-1H-pyrazole-4-carboxylic acid]
8.30 to 9.00	Cc1cccc(-c2cnc(-n3cc(C(=O)O)c(N)n3)cc2C#N)c1 [Compound 101, 3-amino-1-[4-cyano-5-(3-methylphenyl)pyridin-2-yl]-1H-pyrazole-4-carboxylic acid]
8.30 to 9.00	N#Cc1cc(-n2cc(C(=O)O)cn2)ncc1-c1ccc(C(=O)O)cc1 [Compound 42, 1-[5-(4-carboxyphenyl)-4-cyanopyridin-2-yl]-1H-pyrazole-4-carboxylic acid]
8.30 to 9.00	COc1cc(F)ccc1-c1cnc(-n2cc(C(=O)O)cn2)cc1C#N [Compound 50, 1-[4-cyano-5-(4-fluoro-2-methoxyphenyl)pyridin-2-yl]-1H-pyrazole-4-carboxylic acid]
8.30 to 9.00	N#Cc1cc(-n2cc(C(=O)O)cn2)ncc1-c1cc(F)ccc1F [Compound 35, 1-[4-cyano-5-(2,5-difluorophenyl)pyridin-2-yl]-1H-pyrazole-4-carboxylic acid]
8.30 to 9.00	N#Cc1cc(-n2cc(C(=O)O)cn2)ncc1-c1ccc(C(=O)N2CCOCC2)cc1 [Compound 70, 1-(4-cyano-5-{4-[(morpholine-4-yl)carbonyl]phenyl}pyridine-2-yl)-1H-pyrazole-4-carboxylic acid]
8.30 to 9.00	COc1cccc(-c2cnc(-n3cc(C(=O)O)c(N)n3)cc2C#N)c1 [Compound 102, 3-amino-1-[4-cyano-5-(3-methoxyphenyl)pyridin-2-yl]-1H-pyrazole-4-carboxylic acid]
≤ 8.00	N#Cc1nc(-n2cc(C(=O)O)cn2)ccc1-c1ccccc1 [Compound 85, 1-(6-cyano-5-phenylpyridin-2-yl)-1H-pyrazole-4-carboxylic acid]
≤ 8.00	Cc1cccc(-c2ccc(-n3cc(C(=O)O)cn3)nc2C#N)c1 [Compound 92, 1-[6-cyano-5-(3-methylphenyl)pyridin-2-yl]-1H-pyrazole-4-carboxylic acid]
8.30 to 9.00	CC(C)Oc1ccc(-c2cnc(-n3cc(C(=O)O)cn3)cc2C#N)cc1 [Compound 52]
≤ 8.00	N#Cc1cc(-n2cc(C(=O)O)cn2)cnc1-c1cccc(F)c1F [Compound 81, 1-[5-cyano-6-(2,3-difluorophenyl)pyridin-3-yl]-1H-pyrazole-4-carboxylic acid]
8.30 to 9.00	Cc1cccc(-c2cnc(-n3cc(C(=O)O)cn3)cc2C#N)c1C [Compound 38, 1-[4-cyano-5-(2,3-dimethylphenyl)pyridin-2-yl]-1H-pyrazole-4-carboxylic acid]
8.30 to 9.00	N#Cc1cc(-n2cc(C(=O)O)cn2)ncc1-c1ccc(-c2ccccc2)cc1 [Compound 65, 1-[4-cyano-5-(4-phenylphenyl)pyridine-2-yl]-1H-pyrazole-4-carboxyic acid]
8.00 to 8.30	N#Cc1nc(-n2cc(C(=O)O)cn2)ccc1-c1c(F)cccc1F [Compound 95, 1-[6-cyano-5-(2,6-difluorophenyl)pyridin-2-yl]-1H-pyrazole-4-carboxylic acid]
8.00 to 8.30	CC(C)COc1cccc(-c2cnc(-n3cc(C(=O)O)cn3)cc2C#N)c1 [Compound 56]
8.30 to 9.00	Cc1ccc(-c2cnc(-n3cc(C(=O)O)cn3)cc2C#N)cc1F [Compound 39, 1-[4-cyano-5-(3-fluoro-4-methylphenyl)pyridin-2-yl]-1H-pyrazole-4-carboxylic acid]

More lines, now with the values behind:

Compound	pIC50
N#Cc1cc(-n2cc(C(=O)O)cn2)ncc1-c1cccc(Cl)c1 [Compound 12, 1-[4-cyano-5-(3-chlorophenyl)pyridin-2-yl]-1H-pyrazole-4-carboxylic acid]	8.00 to 8.30
N#Cc1cc(-n2cc(C(=O)O)cn2)ncc1-c1ccccc1F [Compound 5, 1-[4-cyano-5-(2-fluorophenyl)pyridin-2-yl]-1H-pyrazole-4-carboxylic acid]	8.30 to 9.00
Cc1cccc(-c2cnc(-n3cc(C(=O)O)cn3)cc2C#N)c1 [Compound 10, 1-[4-cyano-5-(3-methylphenyl)pyridin-2-yl]-1H-pyrazole-4-carboxylic acid]	8.30 to 9.00
N#Cc1cc(-n2cc(C(=O)O)cn2)ncc1-c1ccc(Cl)cc1 [Compound 15, 1-[4-cyano-5-(4-chlorophenyl)pyridin-2-yl]-1H-pyrazole-4-carboxylic acid]	8.30 to 9.00
COc1cnccc1-c1cnc(-n2cc(C(=O)O)cn2)cc1C#N [Compound 24, 1-[4-cyano-5-(3-methoxypyridin-4-yl)pyridin-2-yl]-1H-pyrazole-4-carboxylic acid]	≤ 8.00
1-[5-(4-acetophenyl)-4-cyanopyridin-2-yl]-1H-pyrazole-4-carboxylic acid [Compound 71]	8.30 to 9.00
COc1ccc(-c2cnc(-n3cc(C(=O)O)cn3)cc2C#N)cc1 [Compound 2, 1-[4-cyano-5-(4-methoxyphenyl)pyridin-2-yl]-1H-pyrazole-4-carboxylic acid]	8.30 to 9.00
Cc1nn(-c2cc(C#N)c(-c3ccccc3)cn2)cc1C(=O)O [Compound 26, 1-(4-cyano-5-phenylpyridin-2-yl)-3-methyl-1H-pyrazole-4-carboxylic acid]	≤ 8.00
N#Cc1cc(-n2cc(C(=O)O)cn2)ncc1-c1ccc(F)cc1F [Compound 32, 1-[4-cyano-5-(2,4-difluorophenyl)pyridin-2-yl]-1H-pyrazole-4-carboxylic acid]	8.30 to 9.00
N#Cc1cc(-n2cc(C(=O)O)cn2)ncc1-c1cccc(F)c1F [Compound 20, 1-[4-cyano-5-(2,3-difluorophenyl)pyridin-2-yl]-1H-pyrazole-4-carboxylic acid]	8.30 to 9.00
Cc1nn(-c2cc(C#N)c(-c3ccccc3)cn2)c(C)c1C(=O)O [Compound 28, 1-(4-cyano-5-phenylpyridin-2-yl)-3,5-dimethyl-1H-pyrazole-4-carboxylic acid]	≤ 8.00
Cc1ccccc1-c1cnc(-n2cc(C(=O)O)cn2)cc1C#N [Compound 4, 1-[4-cyano-5-(2-methylphenyl)pyridin-2-yl]-1H-pyrazole-4-carboxylic acid]	8.00 to 8.30
N#Cc1cc(-n2cc(C(=O)O)cn2)ncc1-c1ccc(O)cc1 [Compound 16, 1-[4-cyano-5-(4-hydroxyphenyl)pyridin-2-yl]-1H-pyrazole-4-carboxylic acid]	8.30 to 9.00
COc1ccccc1-c1cnc(-n2cc(C(=O)O)cn2)cc1C#N [Compound 7, 1-[4-cyano-5-(2-methoxyphenyl)pyridin-2-yl]-1H-pyrazole-4-carboxylic]	8.30 to 9.00
Cc1ccc(-c2cnc(-n3cc(C(=O)O)cn3)cc2C#N)c(F)c1 [Compound 33, 1-[4-cyano-5-(2-fluoro-4-methylphenyl)pyridin-2-yl]-1H-pyrazole-4-carboxylic acid]	8.30 to 9.00
CCCOc1cccc(-c2cnc(-n3cc(C(=O)O)cn3)cc2C#N)c1 [Compound 31, 1-[4-cyano-5-(3-propoxyphenyl)pyridin-2-yl]-1H-pyrazole-4-carboxylic acid]	8.30 to 9.00
N#Cc1cc(-n2cc(C(=O)O)cn2)ncc1-c1ccccc1OC(F)(F)F [Compound 9, 1-{4-cyano-5-[2-(trifluoromethoxy)phenyl]pyridin-2-yl]-1H-pyrazole-4-carboxylic acid]	≤ 8.00
CCOc1ccccc1-c1cnc(-n2cc(C(=O)O)cn2)cc1C#N [Compound 3, 1-[4-cyano-5-(2-ethoxyphenyl)pyridin-2-yl]-1H-pyrazole-4-carboxylic acid]	8.00 to 8.30
